≈ marks a conversion by molar mass, not a printed value.
How the values were obtained:
[1] = tested on: Escherichia coli IFO 12734; assay: Antibacterial activity (MIC), standard method of Japan Society of Chemotherapy; type: cell-based; settings: IFO12734, read-out: minimum inhibitory concentration (MIC)
Description: (§1) The results obtained from the typical compounds are shown in Table 2 as the minimum inhibitory concentration (MIC, μg/ml). […] In Table 2, Test compound No. corresponds to derivative No. in Table 1.

[2] = tested on: Bacillus subtilis IFO 3134; assay: as above; type: cell-based; settings: IFO3134; Bacillus subtilis IFO 3134; read-out: minimum inhibitory concentration (MIC)
Description: as §1

[3] = tested on: Staphylococcus aureus IFO 12732; assay: as above; type: cell-based; settings: IFO12732; Staphylococcus aureus IFO 12732; read-out: minimum inhibitory concentration (MIC)
Description: as §1

[4] = tested on: Klebsiella pneumoniae IFO 3512; assay: as above; type: cell-based; settings: IFO3512; Klebsiella pneumoniae IFO 3512; read-out: minimum inhibitory concentration (MIC)
Description: as §1

[5] = tested on: Micrococcus luteus IFO 12708; assay: as above; type: cell-based; settings: IFO12708; Micrococcus luteus IFO 12708; read-out: minimum inhibitory concentration (MIC)
Description: as §1

[6] = tested on: Mycobacterium smegmatis ATCC 607; assay: as above; type: cell-based; settings: Mycolicibacterium smegmatis, ATCC607; Mycobacterium smegmatis ATCC 607; read-out: minimum inhibitory concentration (MIC)
Description: as §1

[7] = Concentration in serum after oral administration to rats; settings: rat, 20 mg/kg

MIC [1] [µg/mL]	MIC [2] [µg/mL]	MIC [3] [µg/mL]	MIC [4] [µg/mL]	MIC [5] [µg/mL]	MIC [6] [µg/mL]	concentration at 1 h [7] [ng/mL]	concentration at 3 h [7] [ng/mL]	concentration at 5 h [7] [ng/mL]	Structure (SMILES)
> 10	≤ 0.02	≤ 0.02	> 10	≤ 0.02	1.25 (≈ 1.42 µM)	2100	6100	5200	COC1C=COC2(C)Oc3c(C)c(O)c4c(=O)c(c5oc6cc(N7CCCC(C)C7)ccc6nc-5c4c3C2=O)NC(=O)C(C)=CC=CC(C)C(O)C(C)C(O)C(C)C(OC(C)=O)C1C (stereo not drawn) [compound 23]
> 10	≤ 0.02	≤ 0.02	> 10	≤ 0.02	1.25 (≈ 1.42 µM)	–	–	–	COC1C=COC2(C)Oc3c(C)c(O)c4c(=O)c(c5oc6cc(N7CCC(C)CC7)ccc6nc-5c4c3C2=O)NC(=O)C(C)=CC=CC(C)C(O)C(C)C(O)C(C)C(OC(C)=O)C1C (stereo not drawn) [compound 24]
–	–	–	–	–	–	2400	6600	3500	CCC1CCCCN1c1ccc2nc3c4c5c6c(C)c(O)c4c(=O)c(c-3oc2c1)NC(=O)C(C)=CC=CC(C)C(O)C(C)C(O)C(C)C(OC(C)=O)C(C)C(OC)C=COC(C)(O6)C5=O (stereo not drawn) [compound 25]
> 10	≤ 0.02	≤ 0.02	> 10	≤ 0.02	1.25 (≈ 1.4 µM)	1800	6400	1700	COC1C=COC2(C)Oc3c(C)c(O)c4c(=O)c(c5oc6cc(N7CCCC(C)(C)C7)ccc6nc-5c4c3C2=O)NC(=O)C(C)=CC=CC(C)C(O)C(C)C(O)C(C)C(OC(C)=O)C1C (stereo not drawn) [compound 27]
5 (≈ 5.17 µM)	≤ 0.02	≤ 0.02	> 10	≤ 0.02	1.25 (≈ 1.29 µM)	–	–	–	CCN(CC)C(=O)C1CCCN(c2ccc3nc4c5c6c7c(C)c(O)c5c(=O)c(c-4oc3c2)NC(=O)C(C)=CC=CC(C)C(O)C(C)C(O)C(C)C(OC(C)=O)C(C)C(OC)C=COC(C)(O7)C6=O)C1 (stereo not drawn) [compound 31]
0.63 (≈ 0.713 µM)	0.04 (≈ 0.0453 µM)	0.04 (≈ 0.0453 µM)	1.25 (≈ 1.42 µM)	≤ 0.02	1.25 (≈ 1.42 µM)	–	–	–	COC1C=COC2(C)Oc3c(C)c(O)c4c(=O)c(c5oc6cc(N7CCN(C)CC7)ccc6nc-5c4c3C2=O)NC(=O)C(C)=CC=CC(C)C(O)C(C)C(O)C(C)C(OC(C)=O)C1C (stereo not drawn) [compound 39]

Further lines, the compound ahead of its results:

Structure (SMILES)	MIC [1] [µg/mL]	MIC [2] [µg/mL]	MIC [3] [µg/mL]	MIC [4] [µg/mL]	MIC [5] [µg/mL]	MIC [6] [µg/mL]	concentration at 1 h [7] [ng/mL]	concentration at 3 h [7] [ng/mL]	concentration at 5 h [7] [ng/mL]
COC1C=COC2(C)Oc3c(C)c(O)c4c(=O)c(c5oc6cc(N7CC=CCC7)ccc6nc-5c4c3C2=O)NC(=O)C(C)=CC=CC(C)C(O)C(C)C(O)C(C)C(OC(C)=O)C1C (stereo not drawn) [compound 37]	2.5 (≈ 2.89 µM)	≤ 0.02	0.08 (≈ 0.0924 µM)	> 10	≤ 0.02	1.25 (≈ 1.44 µM)	–	–	–
COC1C=COC2(C)Oc3c(C)c(O)c4c(=O)c(c5oc6cc(N7CCSCC7)ccc6nc-5c4c3C2=O)NC(=O)C(C)=CC=CC(C)C(O)C(C)C(O)C(C)C(OC(C)=O)C1C (stereo not drawn) [compound 45]	2.5 (≈ 2.82 µM)	0.04 (≈ 0.0451 µM)	≤ 0.02	10 (≈ 11.3 µM)	≤ 0.02	1.25 (≈ 1.41 µM)	–	–	–
COC1C=COC2(C)Oc3c(C)c(O)c4c(=O)c(c5oc6cc(N7CCCC7)cc(O)c6nc-5c4c3C2=O)NC(=O)C(C)=CC=CC(C)C(O)C(C)C(O)C(C)C(OC(C)=O)C1C (stereo not drawn) [compound 46]	> 10	≤ 0.02	≤ 0.02	> 10	≤ 0.02	1.25 (≈ 1.44 µM)	–	–	–
COC1C=COC2(C)Oc3c(C)c(O)c4c(=O)c(c5oc6cc(N7CCCC7)ccc6nc-5c4c3C2=O)NC(=O)C(C)=CC=CC(C)C(O)C(C)C(O)C(C)C(O)C1C (stereo not drawn) [compound 49]	1.25 (≈ 1.54 µM)	≤ 0.02	≤ 0.02	5 (≈ 6.16 µM)	≤ 0.02	1.25 (≈ 1.54 µM)	2700	3500	2800
COC1C=COC2(C)Oc3c(C)c(O)c4c(=O)c(c5oc6cc(N7CCCCC7)ccc6nc-5c4c3C2=O)NC(=O)C(C)=CC=CC(C)C(O)C(C)C(O)C(C)C(O)C1C (stereo not drawn) [compound 50]	–	–	–	–	–	–	700	2400	2800

— patent US4690919A, “Benzoxazinorifamycin derivative, process for preparing the same and antibacterial agent containing the same” (Kanegafuchi Kagaku Kogyo Kabushiki Kaisha, priority 1985, dated 1987)
